Experiments:
[1] = Clearance in male Wistar rat at 100 mg/kg, po; format: ADME, organism-based; parameters: dose 100 mg/kg, route oral; conditions: in vivo
[2] = test system: Rattus norvegicus; experiment: Activity against high density lipoprotein cholesterol level in obese female Zucker rat serum after 2 weeks at 100 mg/kg (percent change from pre-treatment); format: functional
[3] = test system: Rattus norvegicus; experiment: Activity against non high density lipoprotein cholesterol level in obese female Zucker rat serum after 1 week at 100 mg/kg (percent change from pre-treatment); format: functional
[4] = test system: Rattus norvegicus; experiment: Activity against triglyceride level in obese female Zucker rat serum after 1 week at 100 mg/kg (percent change from pre-treatment); format: functional
[5] = Tmax in male Wistar rat at 100 mg/kg, po; format: ADME, organism-based; parameters: dose 100 mg/kg, route oral; conditions: in vivo
[6] = test system: Rattus norvegicus; experiment: Activity against high density lipoprotein cholesterol level in obese female Zucker rat serum after 1 week at 100 mg/kg (percent change from pre-treatment); format: functional
[7] = AUC (infinity) in male Wistar rat at 100 mg/kg, po; format: ADME, organism-based; parameters: time infinity, dose 100 mg/kg, route oral; conditions: plasma
[8] = Half life in male Wistar rat at 100 mg/kg, po; format: ADME, organism-based; parameters: dose 100 mg/kg, route oral; conditions: in vivo
[9] = test system: Rattus norvegicus; experiment: Activity against non high density lipoprotein cholesterol level in obese female Zucker rat serum after 2 weeks at 100 mg/kg (percent change from pre-treatment); format: functional
[10] = AUC in male Wistar rat at 100 mg/kg, po; format: ADME, organism-based; parameters: dose 100 mg/kg, route oral; conditions: plasma
[11] = Cmax in male Wistar rat at 100 mg/kg, po; format: ADME, organism-based; parameters: dose 100 mg/kg, route oral; conditions: in vivo
[12] = test system: Hepatocyte; experiment: Inhibition of lipid synthesis in primary rat hepatocytes by incorporation radiolabeled acetate into cellular lipids; format: functional, cell-based, Sprague-Dawley; conditions: Rattus norvegicus, Sprague-Dawley, Hepatocyte; read-out: IC50
[13] = test system: Rattus norvegicus; experiment: Activity against triglyceride level in obese female Zucker rat serum after 2 weeks at 100 mg/kg (percent change from pre-treatment); format: functional
[14] = test system: Rattus norvegicus; experiment: Volume of distribution in male Wistar rat at 100 mg/kg, po; format: ADME, organism-based; parameters: dose 100 mg/kg, route oral; conditions: in vivo
[15] = test system: Rattus norvegicus; experiment: Tolerability of compound upto 5000 mg/kg; format: ADME, organism-based; parameters: dose 5000 mg/kg; conditions: in vivo
[16] = test system: Rattus norvegicus; experiment: Half life of the metabolite 7-hydroxy-2,2,12,12-tetramethyltridecanedioic acid in male Wistar rat administered with the parent compound at 100 mg/kg, po; format: ADME, organism-based; parameters: dose 100 mg/kg, route oral; conditions: in vivo
[17] = test system: Rattus norvegicus; experiment: Tmax of the metabolite 2,2,12,12-tetramethyl-7-oxotridecanedioic acid in male Wistar rat administered with the parent compound at 100 mg/kg, po; format: ADME, organism-based; parameters: dose 100 mg/kg, route oral; conditions: in vivo
[18] = test system: Rattus norvegicus; experiment: Half life of the metabolite 7,13-dihydroxy-2,2,12,12-tetramethyltridecanoic acid in male Wistar rat administered with the parent compound at 100 mg/kg, po; format: ADME, organism-based; parameters: dose 100 mg/kg, route oral; conditions: in vivo
[19] = test system: Rattus norvegicus; experiment: Tmax of the metabolite 7-hydroxy-2,2,12,12-tetramethyltridecanedioic acid in male Wistar rat administered with the parent compound at 100 mg/kg, po; format: ADME, organism-based; parameters: dose 100 mg/kg, route oral; conditions: in vivo
[20] = test system: Rattus norvegicus; experiment: Tmax of the metabolite 7,13-dihydroxy-2,2,12,12-tetramethyltridecanoic acid in male Wistar rat administered with the parent compound at 100 mg/kg, po; format: ADME, organism-based; parameters: dose 100 mg/kg, route oral; conditions: in vivo
[21] = test system: Rattus norvegicus; experiment: Clearance of the metabolite 2,2,12,12-tetramethyl-7-oxotridecanedioic acid in male Wistar rat administered with the parent compound at 100 mg/kg, po; format: ADME, organism-based; parameters: dose 100 mg/kg, route oral; conditions: in vivo
[22] = test system: Rattus norvegicus; experiment: Tolerability of compound upto 2000 mg/kg; format: organism-based; parameters: dose 2000 mg/kg; conditions: in vivo
[23] = test system: Rattus norvegicus; experiment: Volume of distribution of the metabolite 2,2,12,12-tetramethyl-7-oxotridecanedioic acid in male Wistar rat administered with the parent compound at 100 mg/kg, po; format: ADME, organism-based; parameters: dose 100 mg/kg, route oral; conditions: in vivo
[24] = test system: Rattus norvegicus; experiment: AUC (infinity) of the metabolite 13-hydroxy-2,2,12,12-tetramethyl-7-oxotridecanoic acid in male Wistar rat administered with the parent compound at 100 mg/kg, po; format: ADME, organism-based, Plasma; parameters: time infinity, dose 100 mg/kg, route oral; conditions: in vivo
[25] = test system: Rattus norvegicus; experiment: AUC of the metabolite 7-hydroxy-2,2,12,12-tetramethyltridecanedioic acid in male Wistar rat administered with the parent compound at 100 mg/kg, po; format: ADME, organism-based, Plasma; parameters: dose 100 mg/kg, route oral; conditions: in vivo
[26] = test system: Rattus norvegicus; experiment: Cmax of the metabolite 7,13-dihydroxy-2,2,12,12-tetramethyltridecanoic acid in male Wistar rat administered with the parent compound at 100 mg/kg, po; format: ADME, organism-based; parameters: dose 100 mg/kg, route oral; conditions: in vivo
[27] = test system: Rattus norvegicus; experiment: AUC of the metabolite 13-hydroxy-2,2,12,12-tetramethyl-7-oxotridecanoic acid in male Wistar rat administered with the parent compound at 100 mg/kg, po; format: ADME, organism-based, Plasma; parameters: dose 100 mg/kg, route oral; conditions: in vivo
[28] = test system: Rattus norvegicus; experiment: Volume of distribution of the metabolite 7-hydroxy-2,2,12,12-tetramethyltridecanedioic acid in male Wistar rat administered with the parent compound at 100 mg/kg, po; format: ADME, organism-based; parameters: dose 100 mg/kg, route oral; conditions: in vivo
[29] = test system: Rattus norvegicus; experiment: AUC (infinity) of the metabolite 2,2,12,12-tetramethyl-7-oxotridecanedioic acid in male Wistar rat administered with the parent compound at 100 mg/kg, po; format: ADME, organism-based, Plasma; parameters: time infinity, dose 100 mg/kg, route oral; conditions: in vivo
[30] = test system: Rattus norvegicus; experiment: Cmax of the metabolite 13-hydroxy-2,2,12,12-tetramethyl-7-oxotridecanoic acid in male Wistar rat administered with the parent compound at 100 mg/kg, po; format: ADME, organism-based; parameters: dose 100 mg/kg, route oral; conditions: in vivo
[31] = test system: Rattus norvegicus; experiment: Clearance of the metabolite 13-hydroxy-2,2,12,12-tetramethyl-7-oxotridecanoic acid in male Wistar rat administered with the parent compound at 100 mg/kg, po; format: ADME, organism-based; parameters: dose 100 mg/kg, route oral; conditions: in vivo
[32] = test system: Rattus norvegicus; experiment: AUC (infinity) of the metabolite 7,13-dihydroxy-2,2,12,12-tetramethyltridecanoic acid in male Wistar rat administered with the parent compound at 100 mg/kg, po; format: ADME, organism-based, Plasma; parameters: time infinity, dose 100 mg/kg, route oral; conditions: in vivo
[33] = test system: Rattus norvegicus; experiment: Volume of distribution of the metabolite 13-hydroxy-2,2,12,12-tetramethyl-7-oxotridecanoic acid in male Wistar rat administered with the parent compound at 100 mg/kg, po; format: ADME, organism-based; parameters: dose 100 mg/kg, route oral; conditions: in vivo
[34] = test system: Rattus norvegicus; experiment: Cmax of the metabolite 2,2,12,12-tetramethyl-7-oxotridecanedioic acid in male Wistar rat administered with the parent compound at 100 mg/kg, po; format: ADME, organism-based; parameters: dose 100 mg/kg, route oral; conditions: in vivo
[35] = test system: Rattus norvegicus; experiment: AUC (infinity) of the metabolite 7-hydroxy-2,2,12,12-tetramethyltridecanedioic acid in male Wistar rat administered with the parent compound at 100 mg/kg, po; format: ADME, organism-based, Plasma; parameters: time infinity, dose 100 mg/kg, route oral; conditions: in vivo
[36] = test system: Rattus norvegicus; experiment: AUC of the metabolite 2,2,12,12-tetramethyl-7-oxotridecanedioic acid in male Wistar rat administered with the parent compound at 100 mg/kg, po; format: ADME, organism-based, Plasma; parameters: dose 100 mg/kg, route oral; conditions: in vivo
[37] = test system: Rattus norvegicus; experiment: Clearance of the metabolite 7-hydroxy-2,2,12,12-tetramethyltridecanedioic acid in male Wistar rat administered with the parent compound at 100 mg/kg, po; format: ADME, organism-based; parameters: dose 100 mg/kg, route oral; conditions: in vivo
[38] = test system: Rattus norvegicus; experiment: Cmax of the metabolite 7-hydroxy-2,2,12,12-tetramethyltridecanedioic acid in male Wistar rat administered with the parent compound at 100 mg/kg, po; format: ADME, organism-based; parameters: dose 100 mg/kg, route oral; conditions: in vivo
[39] = test system: Rattus norvegicus; experiment: Volume of distribution of the metabolite 7,13-dihydroxy-2,2,12,12-tetramethyltridecanoic acid in male Wistar rat administered with the parent compound at 100 mg/kg, po; format: ADME, organism-based; parameters: dose 100 mg/kg, route oral; conditions: in vivo
[40] = test system: Rattus norvegicus; experiment: Half life of the metabolite 13-hydroxy-2,2,12,12-tetramethyl-7-oxotridecanoic acid in male Wistar rat administered with the parent compound at 100 mg/kg, po; format: ADME, organism-based; parameters: dose 100 mg/kg, route oral; conditions: in vivo
[41] = test system: Rattus norvegicus; experiment: AUC of the metabolite 7,13-dihydroxy-2,2,12,12-tetramethyltridecanoic acid in male Wistar rat administered with the parent compound at 100 mg/kg, po; format: ADME, organism-based, Plasma; parameters: dose 100 mg/kg, route oral; conditions: in vivo
[42] = test system: Rattus norvegicus; experiment: Tmax of the metabolite 13-hydroxy-2,2,12,12-tetramethyl-7-oxotridecanoic acid in male Wistar rat administered with the parent compound at 100 mg/kg, po; format: ADME, organism-based; parameters: dose 100 mg/kg, route oral; conditions: in vivo
[43] = test system: Rattus norvegicus; experiment: Half life of the metabolite 2,2,12,12-tetramethyl-7-oxotridecanedioic acid in male Wistar rat administered with the parent compound at 100 mg/kg, po; format: ADME, organism-based; parameters: dose 100 mg/kg, route oral; conditions: in vivo
[44] = test system: Rattus norvegicus; experiment: Clearance of the metabolite 7,13-dihydroxy-2,2,12,12-tetramethyltridecanoic acid in male Wistar rat administered with the parent compound at 100 mg/kg, po; format: ADME, organism-based; parameters: dose 100 mg/kg, route oral; conditions: in vivo

## CC(C)(CCCCC(O)CCCCC(C)(C)C(=O)O)C(=O)O
[1]
  CL/F: 0.473 mL/min
[2]
  Activity: 50%
[3]
  Activity: -6%
[4]
  Activity: -32%
[5]
  Tmax: 6 h
[6]
  Activity: 57%
[7]
  AUC(0-inf): 1180 µg·h/mL
[8]
  half-life: 16.9 h
[9]
  Activity: -41%
[10]
  AUC: 703 µg·h/mL
[11]
  Cmax: 40600 ng/mL
[12]
  IC50: 4.7 µM
[13]
  Activity: -59%
[14]
  Vdss: 2.0721 L/kg

## CC(C)(CO)CCCCSCCCCC(C)(C)CO
[2]
  Activity: 153%
[3]
  Activity: -11%
[4]
  Activity: -37%
[6]
  Activity: 141%
[15]
  Activity: Active
[9]
  Activity: 9%
[12]
  IC50: 18 µM
[13]
  Activity: -56%

## CC(C)(CO)CCCCC(=O)CCCCC(C)(C)CO
[16]
  T1/2: 16.9 h
[17]
  Tmax: 6 h
[18]
  T1/2: 3.1 h
[19]
  Tmax: 6 h
[20]
  Tmax: 6 h
[2]
  Activity: 126%
[21]
  CL: 86.8 mL/h
[22]
  Activity: Active
[3]
  Activity: -23%
[4]
  Activity: -54%
[23]
  Vdss: 5.6319 L/kg
[24]
  AUC: 26.8 µg·h/mL
[25]
  AUC: 703.3 µg·h/mL
[26]
  Cmax: 21400 ng/mL
[27]
  AUC: 26.7 µg·h/mL
[28]
  Vdss: 2.0721 L/kg
[29]
  AUC: 344.9 µg·h/mL
[30]
  Cmax: 2000 ng/mL
[31]
  CL: 747.9 mL/h
[6]
  Activity: 111%
[32]
  AUC: 291.6 µg·h/mL
[33]
  Vdss: 13.6709 L/kg
[34]
  Cmax: 14900 ng/mL
[35]
  AUC: 1176.1 µg·h/mL
[36]
  AUC: 230.3 µg·h/mL
[37]
  CL: 28.4 mL/h
[38]
  Cmax: 40600 ng/mL
[39]
  Vdss: 1.5332 L/kg
[40]
  T1/2: 2.5 h
[41]
  AUC: 289.9 µg·h/mL
[9]
  Activity: -10%
[42]
  Tmax: 0.5 h
[43]
  T1/2: 13.5 h
[44]
  CL: 69 mL/h
[12]
  IC50: 1.5 µM
[13]
  Activity: -29%
